# Measurements: patent US10183950B2, “Thienopyrimidine inhibitors of atypical protein kinase C” (Cancer Research Technology Limited, priority 2011, dated 2019)
# Target: T1, kinase-domain human PKCι (Homo sapiens, UniProt P41743)
# T1 construct: Recombinant, kinase-domain human PKCι is expressed and purified in-house; made in house
# T1 sequence (P41743 254-522 limits assumed): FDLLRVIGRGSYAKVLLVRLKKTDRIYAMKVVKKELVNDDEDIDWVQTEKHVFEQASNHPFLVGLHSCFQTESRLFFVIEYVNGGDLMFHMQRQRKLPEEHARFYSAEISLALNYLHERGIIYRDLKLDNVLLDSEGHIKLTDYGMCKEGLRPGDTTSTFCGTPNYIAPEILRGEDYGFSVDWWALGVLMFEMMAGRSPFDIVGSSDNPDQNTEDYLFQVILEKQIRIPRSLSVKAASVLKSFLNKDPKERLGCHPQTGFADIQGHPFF
# Assay: PKCι IC50 IMAP fluorescence polarisation assay, kinase-domain enzyme
# Type: biochemical
# Settings: kinase domain PKCi at 2 μM ATP; read-out: IC50 in IMAP assay against kinase domain PKCi
row,Structure (SMILES),IC50
1,"Cc1csc2c(N[C@H]3CCNC3)nc(-c3ccncc3)nc12 [compound 364, (7-Methyl-2-pyridin-4-yl-thieno[3,2-d]pyrimidin-4-yl)-(S)-pyrrolidin-3-yl-amine]",1 to 10 µM
2,"Cc1csc2c(N(C)CCN)nc(-c3ccncc3)nc12 [compound 365, N*1*-Methyl-N*1*-(7-methyl-2-pyridin-4-yl-thieno[3,2-d]pyrimidin-4-yl)-ethane-1,2-diamine]",1 to 10 µM
3,"C[C@@H](N)CNc1nc(-c2ccncc2)nc2cc(-c3ccccc3)sc12 [compound 366, (R)-N*1*-(6-Phenyl-2-pyridin-4-yl-thieno[3,2-d]pyrimidin-4-yl)-propane-1,2-diamine]",10 to 40 µM
4,"C[C@H](N)CNc1nc(-c2ccncc2)nc2cc(-c3ccccc3)sc12 [compound 367, (S)-N*1*-(6-Phenyl-2-pyridin-4-yl-thieno[3,2-d]pyrimidin-4-yl)-propane-1,2-diamine]",10 to 40 µM
5,"c1ccc(-c2cc3nc(-c4ccncc4)nc(N4CCCNCC4)c3s2)cc1 [compound 368, 4-[1,4]Diazepan-1-yl-6-phenyl-2-pyridin-4-yl-thieno[3,2-d]pyrimidine]",1 to 10 µM
6,"Cc1csc2c(NC[C@@H](C)N)nc(-c3ccncc3)nc12 [compound 369, (R)-N*1*-(7-Methyl-2-pyridin-4-yl-thieno[3,2-d]pyrimidin-4-yl)-propane-1,2-diamine]",1 to 10 µM
7,"Cc1csc2c(NCCN)nc(-c3ccncc3)nc12 [compound 370, N*1*-(7-Methyl-2-pyridin-4-yl-thieno[3,2-d]pyrimidin-4-yl)-ethane-1,2-diamine]",0.1 to 1 µM
8,"Clc1cccc2sc3c(N4CCCNCC4)nc(-c4ccncc4)nc3c12 [compound 371, 9-Chloro-4-[1,4]diazepan-1-yl-2-pyridin-4-yl-benzo[4,5]thieno[3,2-d]pyrimidine]",0.1 to 1 µM
9,"N[C@H](CNc1nc(-c2ccncc2)nc2c1sc1cccc(Cl)c12)Cc1ccccc1 [compound 372, (S)-N*1*-(9-Chloro-2-pyridin-4-yl-benzo[4,5]thieno[3,2-d]pyrimidin-4-yl)-3-phenyl-propane-1,2-diamine]",0.1 to 1 µM
10,"C[C@H](N)CNc1nc(-c2ccncc2)nc2c1sc1cccc(Cl)c12 [compound 373, (S)-N*1*-(9-Chloro-2-pyridin-4-yl-benzo[4,5]thieno[3,2-d]pyrimidin-4-yl)-propane-1,2-diamine]",0.1 to 1 µM
11,"C[C@@H](N)CNc1nc(-c2ccncc2)nc2c1sc1cccc(Cl)c12 [compound 374, (R)-N*1*-(9-Chloro-2-pyridin-4-yl-benzo[4,5]thieno[3,2-d]pyrimidin-4-yl)-propane-1,2-diamine]",0.1 to 1 µM
12,"NCCNc1nc(-c2ccncc2)nc2c1sc1ncccc12 [compound 375, N*1*-(2-Pyridin-4-yl-pyrido[3′,2′:4,5]thieno[3,2-d]pyrimidin-4-yl)-ethane-1,2-diamine]",1 to 10 µM
13,"c1cnc2sc3c(N4CCNCC4)nc(-c4ccncc4)nc3c2c1 [compound 376, 4-Piperazin-1-yl-2-pyridin-4-yl-pyrido[3′,2′:4,5]thieno[3,2-d]pyrimidine]",10 to 40 µM
14,"c1cnc2sc3c(N4CCCNCC4)nc(-c4ccncc4)nc3c2c1 [compound 377, 4-[1,4]Diazepan-1-yl-2-pyridin-4-yl-pyrido[3′,2′:4,5]thieno[3,2-d]pyrimidine]",1 to 10 µM
15,"C[C@H](N)CNc1nc(-c2ccncc2)nc2c1sc1ncccc12 [compound 378, (S)-N*1*-(2-Pyridin-4-yl-pyrido[3′,2′:4,5]thieno[3,2-d]pyrimidin-4-yl)-propane-1,2-diamine]",1 to 10 µM
16,"C[C@@H](N)CNc1nc(-c2ccncc2)nc2c1sc1ncccc12 [compound 379, (R)-N*1*-(2-Pyridin-4-yl-pyrido[3′,2′:4,5]thieno[3,2-d]pyrimidin-4-yl)-propane-1,2-diamine]",10 to 40 µM
17,"Cc1cc(C)c2c(n1)sc1c(N3CCNCC3)nc(-c3ccncc3)nc12 [compound 380, 7,9-Dimethyl-4-piperazin-1-yl-2-pyridin-4-yl-pyrido[3′,2′:4,5]thieno[3,2-d]pyrimidine]",1 to 10 µM
18,"Cc1cc(C)c2c(n1)sc1c(N3CCCNCC3)nc(-c3ccncc3)nc12 [compound 381, 4-[1,4]Diazepan-1-yl-7,9-dimethyl-2-pyridin-4-yl-pyrido[3′,2′:4,5]thieno[3,2-d]pyrimidine]",1 to 10 µM
19,"Cc1cc(C)c2c(n1)sc1c(NC[C@H](C)N)nc(-c3ccncc3)nc12 [compound 382, (S)-N*1*-(7,9-Dimethyl-2-pyridin-4-yl-pyrido[3′,2′:4,5]thieno[3,2-d]pyrimidin-4-yl)-propane-1,2-diamine]",0.1 to 1 µM
20,"Cc1cc(C)c2c(n1)sc1c(NC[C@@H](C)N)nc(-c3ccncc3)nc12 [compound 383, (R)-N*1*-(7,9-Dimethyl-2-pyridin-4-yl-pyrido[3′,2′:4,5]thieno[3,2-d]pyrimidin-4-yl)-propane-1,2-diamine]",1 to 10 µM
21,"Clc1cccc2sc3c(N[C@@H]4CCNC4)nc(-c4ccncc4)nc3c12 [compound 384, (9-Chloro-2-pyridin-4-yl-benzo[4,5]thieno[3,2-d]pyrimidin-4-yl)-(R)-pyrrolidin-3-yl-amine]",1 to 10 µM
22,"CN(CCN)c1nc(-c2ccncc2)nc2c1sc1cccc(Cl)c12 [compound 385, N*1*-(9-Chloro-2-pyridin-4-yl-benzo[4,5]thieno[3,2-d]pyrimidin-4-yl)-N*1*- methyl-ethane-1,2-diamine]",1 to 10 µM

# Other lines, results leading:
row,IC50,Structure (SMILES)
1,0.1 to 1 µM,"NCCNc1nc(-c2ccncc2)nc2c1sc1cccc(Cl)c12 [compound 386, N*1*-(9-Chloro-2-pyridin-4-yl-benzo[4,5]thieno[3,2-d]pyrimidin-4-yl)-ethane-1,2-diamine]"
2,0.1 to 1 µM,"Clc1cccc2sc3c(N4CCNCC4)nc(-c4ccncc4)nc3c12 [compound 387, 9-Chloro-4-piperazin-1-yl-2-pyridin-4-yl-benzo[4,5]thieno[3,2-d]pyrimidine]"
3,10 to 40 µM,"Cc1csc2c(OC[C@H]3CCCN3)nc(-c3ccncc3)nc12 [compound 476, 7-methyl-2-pyridin-4-yl-4-((R)-1-pyrrolidin-2-ylmethoxy)-thieno[3,2-d]pyrimidine]"
4,10 to 40 µM,"N[C@@H](COc1nc(-c2ccncc2)nc2c1sc1cccc(Cl)c12)Cc1ccccc1 [compound 477, (R)-1-(9-Chloro-2-pyridin-4-yl-benzo[4,5]thieno[3,2-d]pyrimidin-4-yloxymethyl)-2-phenyl-ethylamine]"
5,10 to 40 µM,"Clc1cccc2sc3c(OC[C@H]4CCCN4)nc(-c4ccncc4)nc3c12 [compound 478, 9-Chloro-2-pyridin-4-yl-4-((R)-1-pyrrolidin-2-ylmethoxy)-benzo[4,5]thieno[3,2-d]pyrimidine]"
6,1 to 10 µM,"Clc1cccc2sc3c(OC[C@@H]4CCCN4)nc(-c4ccncc4)nc3c12 [compound 479, 9-Chloro-2-pyridin-4-yl-4-((S)-1-pyrrolidin-2-ylmethoxy)-benzo[4,5]thieno[3,2-d]pyrimidine]"
7,10 to 40 µM,"Cc1csc2c(OC[C@@H]3CCCN3)nc(-c3ccncc3)nc12 [compound 480, 7-Methyl-2-pyridin-4-yl-4-((S)-1-pyrrolidin-2-ylmethoxy)-thieno[3,2-d]pyrimidine]"
8,10 to 40 µM,"Cc1csc2c(OC[C@@H](N)Cc3ccccc3)nc(-c3ccncc3)nc12 [compound 481, (S)-1-(7-Methyl-2-pyridin-4-yl-thieno[3,2-d]pyrimidin-4-yloxymethyl)-2-phenyl-ethylamine]"
9,10 to 40 µM,"Cc1csc2c(OC[C@H](N)Cc3ccccc3)nc(-c3ccncc3)nc12 [compound 482, (R)-1-(7-Methyl-2-pyridin-4-yl-thieno[3,2-d]pyrimidin-4-yloxymethyl)-2-phenyl-ethylamine]"
10,10 to 40 µM,"Cc1csc2c(O[C@H]3CCNC3)nc(-c3ccncc3)nc12 [compound 483, 7-Methyl-2-pyridin-4-yl-4-((S)-pyrrolidin-3-yloxy)-thieno[3,2-d]pyrimidine]"
11,1 to 10 µM,"Cc1csc2c(O[C@@H]3CCNC3)nc(-c3ccncc3)nc12 [compound 484, 7-Methyl-2-pyridin-4-yl-4-((R)-pyrrolidin-3-yloxy)-thieno[3,2-d]pyrimidine]"
